Measurements taken from patent US10532977B2, “Small molecule inhibitors of protein tyrosine phosphatases and uses thereof” (Indiana University Research and Technology Corporation, priority 2015, dated 2020).
Entries after “also recorded” stand apart in the source; their conditions may differ.

Columns and labels:
Mtb-infected macrophages = assay: Macrophage assay, growth of M. tuberculosis in IFN-γ activated J774 macrophages; assay type: cell-based, Mycobacterium tuberculosis; details: J774A.1 macrophages
M. tuberculosis H37Rv = assay: Microplate Alamar Blue assay (MABA) MIC, H37Rv; assay type: cell-based, Mycobacterium tuberculosis
[1] = system: EGF-mediated ERK1/2 phosphorylation; assay: EGF-mediated ERK1/2 phosphorylation, immunoblot, H1975 cells; assay type: cell-based, human; details: compound 7 at 40 μM
Experimental: Cell proliferation and immunoblot analysis. Human non-small cell lung carcinoma cell line H1975 was cultured at 37° C. and 5% CO2 in RPMI-1640 (Corning) supplemented with 10% fetal bovine serum (HyClone). Human breast cancer cell line MDA-MB-231 was cultured in DMEM supplemented with 10% fetal bovine serum. For cell proliferation assay, 2˜3×10^3 cells were seeded in each well of 96-well plates. After treating cells with compounds for 2 days, cells were incubated with 50 µg/ml MTT (3-(4,5-Dimethylthiazol-2-yl)-2,5-diphenyltetrazolium bromide) for ˜3-4 hours. Then, the culture medium was removed, DMSO was added to dissolve the formazan crystals. Wells containing only media were used for background correction. The optical density was measured spectrophotometrically at 540 nm. For signaling analysis, cells were serum-starved overnight followed by treatment with vehicle or compounds for 3 hours, and then either left un-stimulated or stimulated with 5 μg/ml EGF or 10 nM PMA (Sigma) for indicated time. Cells were lysed and the lysates were electrophoresed on a 10% polyacrylamide gel, and then transferred to a nitrocellulose membrane, and probed with anti-phospho-ERK1/2 and anti-ERK1/2 (Cell Signaling) antibodies followed by incubation with horseradish peroxidase-conjugated secondary antibodies. […]

SHP2 [2] = molecular target: T1, SHP2 (Homo sapiens, UniProt Q06124); assay: SHP2 inhibition, pNPP substrate; assay type: biochemical
T1 sequence (Q06124 224-528): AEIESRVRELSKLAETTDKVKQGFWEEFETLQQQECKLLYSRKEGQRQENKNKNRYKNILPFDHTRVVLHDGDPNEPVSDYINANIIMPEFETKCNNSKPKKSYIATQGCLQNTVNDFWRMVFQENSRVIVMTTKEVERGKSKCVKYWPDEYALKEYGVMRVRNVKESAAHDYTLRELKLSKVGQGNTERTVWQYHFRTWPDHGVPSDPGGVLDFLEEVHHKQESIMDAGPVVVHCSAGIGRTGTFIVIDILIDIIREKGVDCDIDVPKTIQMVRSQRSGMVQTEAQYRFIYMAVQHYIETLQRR

PTPH1 = molecular target: T2, PTPH1 (Homo sapiens, UniProt P26045); assay: PTPH1 inhibition, pNPP substrate; assay type: biochemical; details: pH 7
T2 sequence (P26045 1-913): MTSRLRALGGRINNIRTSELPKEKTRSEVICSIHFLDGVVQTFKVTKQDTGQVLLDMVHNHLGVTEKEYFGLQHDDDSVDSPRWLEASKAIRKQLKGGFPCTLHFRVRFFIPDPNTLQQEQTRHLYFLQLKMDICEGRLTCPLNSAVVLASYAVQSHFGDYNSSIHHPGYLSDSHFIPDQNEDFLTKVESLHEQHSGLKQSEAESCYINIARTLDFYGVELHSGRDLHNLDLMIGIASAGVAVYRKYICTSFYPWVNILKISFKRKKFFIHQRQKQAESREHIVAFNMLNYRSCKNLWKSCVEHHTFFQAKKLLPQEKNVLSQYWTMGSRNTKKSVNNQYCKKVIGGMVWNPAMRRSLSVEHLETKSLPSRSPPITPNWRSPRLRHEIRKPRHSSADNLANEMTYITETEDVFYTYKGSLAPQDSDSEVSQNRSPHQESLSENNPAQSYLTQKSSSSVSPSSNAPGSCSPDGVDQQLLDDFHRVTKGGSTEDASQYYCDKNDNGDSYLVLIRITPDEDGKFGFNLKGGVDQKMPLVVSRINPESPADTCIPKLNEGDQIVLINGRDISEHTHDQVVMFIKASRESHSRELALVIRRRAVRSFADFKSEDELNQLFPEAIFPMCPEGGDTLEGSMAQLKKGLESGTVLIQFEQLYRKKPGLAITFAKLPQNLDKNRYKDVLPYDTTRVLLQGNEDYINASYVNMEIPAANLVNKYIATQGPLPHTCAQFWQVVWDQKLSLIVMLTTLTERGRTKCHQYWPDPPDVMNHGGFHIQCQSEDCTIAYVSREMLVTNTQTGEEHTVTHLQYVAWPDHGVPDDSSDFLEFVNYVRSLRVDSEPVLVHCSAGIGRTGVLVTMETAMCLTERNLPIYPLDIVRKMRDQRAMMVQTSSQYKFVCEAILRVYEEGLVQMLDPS

LYP = LYP (Homo sapiens, UniProt Q9Y2R2); assay: LYP inhibition, pNPP substrate; assay type: biochemical; details: pNPP at Km, pH 7.0, 25° C.
Sequence of LYP (Q9Y2R2 whole entry): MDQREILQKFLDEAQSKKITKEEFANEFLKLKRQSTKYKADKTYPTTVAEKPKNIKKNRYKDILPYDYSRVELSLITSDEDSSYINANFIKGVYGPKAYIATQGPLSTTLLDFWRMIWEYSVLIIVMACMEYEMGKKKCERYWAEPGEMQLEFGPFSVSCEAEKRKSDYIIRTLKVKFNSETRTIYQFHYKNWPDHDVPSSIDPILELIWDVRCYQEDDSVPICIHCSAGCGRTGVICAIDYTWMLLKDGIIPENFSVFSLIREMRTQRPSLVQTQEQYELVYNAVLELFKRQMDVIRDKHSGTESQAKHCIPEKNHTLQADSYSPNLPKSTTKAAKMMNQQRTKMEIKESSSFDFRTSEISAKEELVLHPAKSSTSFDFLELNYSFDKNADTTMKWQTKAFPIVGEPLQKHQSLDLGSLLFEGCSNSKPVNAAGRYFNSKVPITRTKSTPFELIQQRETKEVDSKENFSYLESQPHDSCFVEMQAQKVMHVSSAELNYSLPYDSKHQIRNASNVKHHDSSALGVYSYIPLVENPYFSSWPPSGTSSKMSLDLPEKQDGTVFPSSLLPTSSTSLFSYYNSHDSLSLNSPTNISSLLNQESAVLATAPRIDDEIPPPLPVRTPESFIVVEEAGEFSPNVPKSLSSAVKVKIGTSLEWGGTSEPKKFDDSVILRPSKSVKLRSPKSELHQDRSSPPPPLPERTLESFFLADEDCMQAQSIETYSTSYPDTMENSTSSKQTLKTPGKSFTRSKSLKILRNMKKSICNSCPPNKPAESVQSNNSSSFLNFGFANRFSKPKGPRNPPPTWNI

TcPTP = TcPTP (Homo sapiens, UniProt P17706); assay: TcPTP inhibition, pNPP substrate; assay type: biochemical; details: pH 7
Sequence of TcPTP (P17706 whole entry): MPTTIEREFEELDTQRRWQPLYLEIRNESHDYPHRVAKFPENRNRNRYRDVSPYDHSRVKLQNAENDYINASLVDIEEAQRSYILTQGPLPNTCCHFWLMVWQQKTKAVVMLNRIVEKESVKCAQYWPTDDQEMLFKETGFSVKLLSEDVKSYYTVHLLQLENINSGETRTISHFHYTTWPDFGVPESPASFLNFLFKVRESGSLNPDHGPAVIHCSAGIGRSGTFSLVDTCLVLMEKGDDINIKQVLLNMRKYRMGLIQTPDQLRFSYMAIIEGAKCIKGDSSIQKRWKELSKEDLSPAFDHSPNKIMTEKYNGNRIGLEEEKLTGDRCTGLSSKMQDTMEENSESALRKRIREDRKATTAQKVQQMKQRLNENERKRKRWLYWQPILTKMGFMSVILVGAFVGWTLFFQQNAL

VHR = VHR (Homo sapiens, UniProt P51452); assay: VHR inhibition, pNPP substrate; assay type: biochemical; details: pNPP at Km, pH 7.0, 25° C.
Sequence of VHR (P51452 whole entry): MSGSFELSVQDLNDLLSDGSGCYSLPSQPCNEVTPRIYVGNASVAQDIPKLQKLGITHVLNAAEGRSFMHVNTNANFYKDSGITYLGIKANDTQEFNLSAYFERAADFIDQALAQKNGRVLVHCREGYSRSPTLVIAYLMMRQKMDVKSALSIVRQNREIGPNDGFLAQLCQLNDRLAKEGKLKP

PTP1B = PTP1B (Homo sapiens, UniProt P18031); assay: PTP1B inhibition, pNPP substrate; assay type: biochemical; details: pNPP at Km, pH 7.0, 25° C.
Sequence of PTP1B (P18031 whole entry): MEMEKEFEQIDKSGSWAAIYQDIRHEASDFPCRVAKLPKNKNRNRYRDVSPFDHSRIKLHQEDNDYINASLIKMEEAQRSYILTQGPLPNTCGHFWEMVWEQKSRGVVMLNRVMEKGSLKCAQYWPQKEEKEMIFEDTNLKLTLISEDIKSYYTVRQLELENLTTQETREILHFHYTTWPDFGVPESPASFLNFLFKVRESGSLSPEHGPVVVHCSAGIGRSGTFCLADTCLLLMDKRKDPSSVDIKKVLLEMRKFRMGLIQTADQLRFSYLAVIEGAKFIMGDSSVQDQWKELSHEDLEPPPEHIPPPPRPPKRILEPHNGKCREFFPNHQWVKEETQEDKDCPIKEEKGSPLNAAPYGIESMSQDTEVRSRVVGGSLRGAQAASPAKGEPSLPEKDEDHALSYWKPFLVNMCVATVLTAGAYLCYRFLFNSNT

HePTP = HePTP (Homo sapiens, UniProt P35236); assay: HePTP inhibition, pNPP substrate; assay type: biochemical; details: pNPP at Km, pH 7.0, 25° C.
Ssu72 = molecular target: T3, Ssu72 (Homo sapiens, UniProt Q9NP77); assay: Ssu72 inhibition, pNPP substrate; assay type: biochemical; details: pH 7
T3 construct: made in house
T3 sequence (Q9NP77 whole entry): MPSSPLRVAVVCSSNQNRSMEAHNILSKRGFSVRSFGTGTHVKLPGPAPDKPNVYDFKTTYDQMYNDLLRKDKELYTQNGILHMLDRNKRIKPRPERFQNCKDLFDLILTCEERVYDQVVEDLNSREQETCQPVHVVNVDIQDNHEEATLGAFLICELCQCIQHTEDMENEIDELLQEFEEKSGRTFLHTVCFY

PEST = PEST (Homo sapiens, UniProt Q05209); assay: PEST inhibition, pNPP substrate; assay type: biochemical; details: pH 7
FAP1 = FAP1 (Homo sapiens, UniProt Q12923); assay: FAP1 inhibition, pNPP substrate; assay type: biochemical; details: pH 7
Sequence of FAP1 (Q12923 whole entry): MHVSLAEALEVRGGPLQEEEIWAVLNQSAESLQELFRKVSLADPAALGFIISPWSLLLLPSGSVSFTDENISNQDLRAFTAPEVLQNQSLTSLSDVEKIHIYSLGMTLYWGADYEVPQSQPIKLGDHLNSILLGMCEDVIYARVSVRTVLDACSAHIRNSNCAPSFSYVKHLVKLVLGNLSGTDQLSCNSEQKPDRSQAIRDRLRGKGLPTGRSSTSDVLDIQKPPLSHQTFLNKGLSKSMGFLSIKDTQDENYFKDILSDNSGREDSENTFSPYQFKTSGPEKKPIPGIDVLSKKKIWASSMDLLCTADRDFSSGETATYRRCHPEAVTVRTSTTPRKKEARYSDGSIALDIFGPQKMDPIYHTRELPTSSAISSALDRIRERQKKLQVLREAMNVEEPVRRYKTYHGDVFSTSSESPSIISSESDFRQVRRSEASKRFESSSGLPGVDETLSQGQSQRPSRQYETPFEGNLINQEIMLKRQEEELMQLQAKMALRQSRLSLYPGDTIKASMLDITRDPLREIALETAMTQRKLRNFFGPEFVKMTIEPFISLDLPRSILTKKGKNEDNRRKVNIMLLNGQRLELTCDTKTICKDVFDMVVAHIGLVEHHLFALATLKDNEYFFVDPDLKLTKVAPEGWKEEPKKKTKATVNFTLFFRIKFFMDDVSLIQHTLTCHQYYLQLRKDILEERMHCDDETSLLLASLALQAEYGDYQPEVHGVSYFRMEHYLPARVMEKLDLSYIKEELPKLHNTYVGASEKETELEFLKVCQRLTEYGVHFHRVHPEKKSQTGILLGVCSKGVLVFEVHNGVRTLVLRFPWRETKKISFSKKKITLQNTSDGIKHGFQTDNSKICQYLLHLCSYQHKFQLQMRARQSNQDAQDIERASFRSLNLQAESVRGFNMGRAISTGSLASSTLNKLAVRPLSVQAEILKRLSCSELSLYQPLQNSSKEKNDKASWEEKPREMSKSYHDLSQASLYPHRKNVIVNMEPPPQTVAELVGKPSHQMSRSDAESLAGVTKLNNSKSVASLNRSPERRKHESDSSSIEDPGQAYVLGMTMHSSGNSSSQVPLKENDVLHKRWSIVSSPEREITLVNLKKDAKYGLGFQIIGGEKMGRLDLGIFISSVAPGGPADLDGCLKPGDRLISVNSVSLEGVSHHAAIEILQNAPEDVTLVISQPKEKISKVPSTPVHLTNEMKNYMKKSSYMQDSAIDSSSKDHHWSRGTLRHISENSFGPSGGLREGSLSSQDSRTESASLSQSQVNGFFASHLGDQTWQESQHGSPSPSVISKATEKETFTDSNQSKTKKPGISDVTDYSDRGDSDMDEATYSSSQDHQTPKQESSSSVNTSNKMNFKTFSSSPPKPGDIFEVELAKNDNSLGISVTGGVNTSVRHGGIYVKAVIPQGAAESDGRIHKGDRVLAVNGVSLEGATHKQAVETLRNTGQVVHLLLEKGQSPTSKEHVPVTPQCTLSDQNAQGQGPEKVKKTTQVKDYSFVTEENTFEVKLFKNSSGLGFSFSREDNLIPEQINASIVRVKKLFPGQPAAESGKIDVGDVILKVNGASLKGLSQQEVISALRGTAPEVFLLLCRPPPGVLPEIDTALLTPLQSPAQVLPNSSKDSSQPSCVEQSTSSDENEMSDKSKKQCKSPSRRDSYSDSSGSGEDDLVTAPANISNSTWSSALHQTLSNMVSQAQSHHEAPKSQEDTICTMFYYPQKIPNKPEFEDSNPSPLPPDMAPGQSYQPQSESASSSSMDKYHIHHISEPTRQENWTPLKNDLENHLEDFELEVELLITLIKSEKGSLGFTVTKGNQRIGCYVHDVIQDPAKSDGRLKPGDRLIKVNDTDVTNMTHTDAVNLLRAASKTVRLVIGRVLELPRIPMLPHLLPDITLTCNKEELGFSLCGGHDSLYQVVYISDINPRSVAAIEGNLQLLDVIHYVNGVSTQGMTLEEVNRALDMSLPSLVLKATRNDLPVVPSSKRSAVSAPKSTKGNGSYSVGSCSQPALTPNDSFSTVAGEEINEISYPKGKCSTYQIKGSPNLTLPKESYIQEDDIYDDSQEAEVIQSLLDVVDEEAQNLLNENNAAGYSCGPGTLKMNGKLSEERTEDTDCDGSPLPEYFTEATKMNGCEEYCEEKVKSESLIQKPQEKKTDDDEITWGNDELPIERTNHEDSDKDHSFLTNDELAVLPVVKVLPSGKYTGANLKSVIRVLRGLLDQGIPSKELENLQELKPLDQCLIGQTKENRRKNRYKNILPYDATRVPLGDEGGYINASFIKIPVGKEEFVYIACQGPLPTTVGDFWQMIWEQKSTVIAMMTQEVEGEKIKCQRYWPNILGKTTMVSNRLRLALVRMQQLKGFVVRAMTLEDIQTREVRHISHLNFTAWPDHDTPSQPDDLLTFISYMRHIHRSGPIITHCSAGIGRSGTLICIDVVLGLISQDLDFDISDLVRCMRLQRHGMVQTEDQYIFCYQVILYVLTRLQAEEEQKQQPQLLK

mPTPA = mPTPA (Mycobacterium tuberculosis, UniProt P9WIA1); assay type: biochemical
Sequence of mPTPA (P9WIA1 whole entry, looked up): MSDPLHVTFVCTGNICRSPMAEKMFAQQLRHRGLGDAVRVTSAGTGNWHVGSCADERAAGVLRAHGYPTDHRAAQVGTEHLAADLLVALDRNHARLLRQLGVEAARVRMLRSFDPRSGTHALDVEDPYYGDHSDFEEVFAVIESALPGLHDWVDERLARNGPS

Laforin = molecular target: T4, Laforin (Homo sapiens, UniProt O95278); assay: Laforin inhibition, pNPP substrate; assay type: biochemical
T4 sequence (O95278 1-331): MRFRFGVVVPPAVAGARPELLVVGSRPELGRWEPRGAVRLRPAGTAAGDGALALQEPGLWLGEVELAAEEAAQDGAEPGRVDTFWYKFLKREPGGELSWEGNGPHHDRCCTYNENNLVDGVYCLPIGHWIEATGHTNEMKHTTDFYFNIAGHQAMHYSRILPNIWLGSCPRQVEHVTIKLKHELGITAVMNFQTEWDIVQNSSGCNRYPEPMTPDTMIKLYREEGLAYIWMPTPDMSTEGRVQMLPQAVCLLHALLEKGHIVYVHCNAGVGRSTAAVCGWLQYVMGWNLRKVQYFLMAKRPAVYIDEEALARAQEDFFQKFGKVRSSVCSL

mPTPB = mPTPB (Mycobacterium tuberculosis, UniProt I6WXK4); assay: biochemical
Sequence of mPTPB (I6WXK4 whole entry): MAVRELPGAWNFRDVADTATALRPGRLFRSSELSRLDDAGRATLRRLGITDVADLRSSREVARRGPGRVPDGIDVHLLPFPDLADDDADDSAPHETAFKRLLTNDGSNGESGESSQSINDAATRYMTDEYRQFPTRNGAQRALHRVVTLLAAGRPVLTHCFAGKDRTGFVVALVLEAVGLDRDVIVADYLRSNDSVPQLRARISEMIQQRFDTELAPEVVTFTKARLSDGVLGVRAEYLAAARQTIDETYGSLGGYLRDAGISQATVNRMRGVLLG

LMWPTP = assay: Insulin signaling in HepG2 cells; assay type: cell-based, human; details: pretreated 1 hour, 5 nM insulin 5 minutes
Experimental: To assess the effects of L335N15 in insulin signaling pathway, HepG2 cells were pretreated with L335N15 for 1 hour and were subsequently stimulated with 5 nM insulin for 5 minutes. […] Consistent with IR activation, downstream Akt phosphorylation (Ser473) was increased. […] Accordingly, LMWPTP inhibitors such as L335N15 described herein can be used to develop agents for the treatment of type 2 diabetes and insulin resistance.

SHP2 [3] = molecular target: SHP2 (Homo sapiens, UniProt Q06124); assay: Covalent adduct formation with SHP2, QTOF ESI-MS / LC-MS; details: pH 7, cefsulodin 3 hours, PVS 10 minutes
Experimental: Characterization of cefsulodin-mediated SHP2 inhibition by Q-TOF ESI-MS, LC-MS, and HPLC. Agilent 6520 Accurate-Mass was used for the Q-TOF ESI-MS studies. Water and acetonitrile (both containing 0.1% formic acid) were used as eluent (80% water, flow 50 μL/min, run time 5 minutes). ESI positive mode was used with mass range from 300 to 1700, the gas temperature was 325° C., and vaporizer temperature was: […] The sample was adjusted to have a concentration at 0.1 mg/mL, the injection volume of each sample was 1 μL. Mass hunter software was used for protein deconvolution data analysis to calculate the molecular weight of the protein.
Agilent Technologies 6130 quadrupole LC-MS instrument was used for the LC-MS studies. A C18 reserved phase column (phenomenex, 50×4.6 mm) was used as stationary phase, water and methanol (both containing 0.1% formic acid) were used as mobile phase (gradient: 0-100% methanol, flow 0 8 ml/min, run time 15 minutes), and UV absorbance at the fixed wavelength of 254 nm and positive and negative ESI-MS data were recorded. The sample was adjusted to have a concentration at 0.1 mg/mL, and the injection volume of each sample was 0.2 μL. The retention time and corresponding ESI-MS data were used as identity of molecules.

## Cc1c(Br)cc(NC(=O)CS(=O)(=O)O)cc1Br
Mtb-infected macrophages
  anti-Mtb activity in Mtb-infected macrophages: markedly decrease bacterial load
M. tuberculosis H37Rv
  activity in standard MIC assays: devoid of activity

## O=C(Nc1ccccc1)C(=O)Nc1ccc(NC(=O)C(c2ccccc2)S(=O)(=O)O)cc1 (stereo not drawn) [Compound 7, 2-oxo-2-((4-(2-oxo-2-(phenylamino)acetamido)phenyl)amino)-1-phenylethanesulfonic acid]
[1]
  EGF-mediated ERK1/2 phosphorylation in H1975 cells: no appreciable effect; also recorded: failed to block EGF-mediated ERK1/2 phosphorylation
SHP2 [2]; 50 μM
  inhibitory activity against SHP2 at 50 μM: no inhibition

## O=C(O)c1cc2c(C#Cc3cccc(C(F)(F)F)c3)c(-c3ccccc3)oc2cc1O [Compound L01Z08]
Mtb-infected macrophages
  anti-Mtb activity in Mtb-infected macrophages: potent anti-Mtb activity

## O=C(Nc1ccc2nc(C(F)(F)F)[nH]c2c1)C(c1ccccc1)S(=O)(=O)O (stereo not drawn) [Compound L319M54]
PTPH1
  IC50: > 200 µM

## O=C(Nc1ccc(-n2ccnc2)cc1)C(c1ccccc1)S(=O)(=O)O (stereo not drawn) [Compound L319M63]
LYP
  IC50: > 100 µM
TcPTP
  IC50: > 100 µM
VHR
  IC50: > 100 µM
PTP1B
  IC50: > 100 µM
HePTP
  IC50: > 100 µM
Ssu72
  IC50: > 100 µM
PEST
  IC50: > 100 µM
FAP1
  IC50: > 100 µM
SHP2 [2]; pNPP at Km, pH 7.0, 25° C.
  IC50: > 100 µM

## O=C(Nc1ccc(N2CCOCC2)cc1)C(c1ccccc1)S(=O)(=O)O (stereo not drawn) [Compound L319M68]
mPTPA
  mode of mPTPA inhibition: competitive inhibitor
PTPH1
  IC50: > 200 µM

## O=C(Nc1nnc(-c2ccccc2)s1)C(c1ccccc1)S(=O)(=O)O (stereo not drawn) [Compound L319M73-2]
Laforin; ratio of IC50
  specificity for Laforin over LMPTP: 8 fold

## O=C(Nc1cnc2ccccc2c1)C(c1ccccc1)S(=O)(=O)O (stereo not drawn) [Compound L319M88]
PTPH1
  IC50: > 200 µM

## O=C(Nc1nc2ccc(O[N+](=O)[O-])cc2s1)C(c1ccccc1)S(=O)(=O)O (stereo not drawn) [Compound L319N15-07]
Laforin
  inhibition against Laforin at 100 μM: no detectable inhibition

## O=C(Nc1nc2ccccc2s1)C(c1ccccc1)S(=O)(=O)O (stereo not drawn) [Compound L319N15]
PTPH1
  IC50: > 200 µM

## O=C(C(c1ccccc1)S(=O)(=O)O)N1CCC(c2ccc(Cl)c(Cl)c2)CC1 (stereo not drawn) [Compound L319N47]
mPTPB
  increase in potency against mPTPB compared to SPAA: 2000 fold

## O=C(CS(=O)(=O)O)Nc1nc2ccc([N+](=O)[O-])cc2s1 [Compound L335N15-07]
Laforin
  inhibition against Laforin at 100 μM: no detectable inhibition

## O=C(CS(=O)(=O)O)Nc1nc2ccccc2s1 [Compound L335N15]
LMWPTP
  Akt phosphorylation (Ser473) in HepG2 cells: increased
LMWPTP; relative to DMSO
  IR Tyr1162/1163 phosphorylation in HepG2 cells: enhanced IR Tyr1162/1163 phosphorylation in a dose-dependent fashion

## NC(=O)C(c1ccccc1)S(=O)(=O)O (stereo not drawn) [SPAA, α-sulfophenylacetic amide, reference compound]
mPTPB
  IC50: 200 µM

## C=CS(=O)(=O)c1ccccc1 [phenyl vinyl sulfone]
SHP2 [3]
  covalent adduct formation with SHP2: formed a covalent adduct
